According to patent publication US5047533A, “Acyclic purine phosphonate nucleotide analogs” (SRI International, priority 1990, dated 1991):
Converted amounts (≈) assume the structure as drawn. Like-named read-outs stand apart in the source and are kept apart here.

How the values were obtained:
[1] = system: human cytomegalovirus (strain AD169); assay: Plaque reduction, human cytomegalovirus; format: cell-based
Protocol: (§1) One herpes virus strain employed was Strain McCrae of type 1 herpes (thymidine kinase positive virus) (HSV-1TK^+). This strain was prepared and titered in MA-104 cells and frozen at -90° C. until use. Also used were strain HF (HSV-1TK^-). Strain E194 (HSV-2), NJB strain (MCMV), strain AD169 (HCMV).
^a 50% effective dose, determined from plot of data.
(§2) The data on acyclovir were gathered from tests run in MRC-5 cells grown under agarose overlay, with plaques read 7 days after virus exposure.

HSV-1TK+ = assay: In vivo guinea pig HSV-1TK+ lesion test, topical solution; conditions: guinea pigs; 5% solution of acyclovir; five days after treatment
Protocol: Compound 2 also was tested in vivo in guinea pigs as an agent against HSV-1TK^+. The animals were inoculated with the virus; 18 hours later Compound 2 at two concentrations (0.4% and 1-2% (saturated) solution in water) was administered, and five days later blister diameters at the point of inoculation were measured. A 5% solution of acyclovir or a 1.4% solution of poly(vinylalcohol) was used as control. Satellite lesions were measured, as well.

[2] = Cytotoxicity (maximum tolerated dose), control tests in 96-well microplates; format: cell-based; conditions: Table 5; microscopic examination, separately run control tests; read-out: Approx. MTD (dose causing approximately 50% cytotoxic effects in cells)
From the text: (§3) ^b Maximum tolerated dose: That dose causing approximately 50%
(§4) cytotoxic effects in cells, determined by the microscopic examination of
(§5) cells for sloughing, shape alteration, and granularity in separately run
(§6) control tests in 96well microplates.
as §2

[3] = system: HSV-1TK+ (Strain McCrae of type 1 herpes); assay: Inhibition of viral CPE, HSV-1TK+ in MA-104 cells; format: cell-based; conditions: for inhibition at 1 µg/mL: 1.0 μg/ml; for inhibition at 3.2 µg/mL: 3.2 μg/ml; for inhibition at 10 µg/mL: 10 μg/ml; for inhibition at 100 µg/mL: 100 μg/ml; for inhibition at 320 µg/mL: 320 μg/ml; for inhibition at 1000 µg/mL: 1000 μg/ml
Protocol: as §1
(§7) Continuous passaged monkey kidney (MA-104) cells were used for testing of herpes-type virus, with growth medium consisting of Minimum Essential Medium (MEM) supplemented with 0.1% NaHCO3 and […] gentamicin.
(§8) To a 96 well microtiter plate containing an established 24 hour monolayer of cells from which the medium has been decanted was added 0.1 ml of varying (one-half log10) concentrations of test compound, which incubated on the cell 15 minutes, after which 0.1 ml of virus in a concentration of 320 cell culture 50% infectious doses (CCID50)/0.1 ml was added. The plate was covered with plastic wrap and incubated at 37° C. Included with the test were toxicity controls (each concentration of compound+test medium in place of virus), virus controls (virus+test medium in place of compound) and cell controls (test medium in place of compound and virus). The cells were examined microscopically after 72 hours for evidence of cytotoxicity and for viral cytopathic effect (CPE). Vidarabine was run on the same plate in parallel. The test compounds were added to the medium at a concentration of 2000 μg/ml for use as a positive control.
Antiviral activity was determined by observation of inhibition of viral CPE. This activity was expressed by ED50, defined as that dose range of compound causing 50% CPE inhibition.
A Virus Rating (VR) was also determined. VR is a numerical expression of antiviral activity, weighted to take into account any cytotoxicity observed, as discussed by Sidewell et al, Appl Microbiol (1971) 22:797. Generally, a VR of 0.1-0.4 indicates slight antiviral effect, 0.5-0.9 indicates moderate antiviral effect, and ≥1.0 indicates strong antiviral effect.

murine CMV (NJB strain) = assay: Inhibition of viral CPE, murine CMV; format: cell-based
Protocol: as §1, §7
as §8, with “Vidarabine was run on the same plate in parallel. The test compounds were added to the medium at a concentration of 2000 μg/ml for use as a positive control.” left out
(§9) Antiviral activity was determined by observation of inhibition of viral CPE. […]
A Virus Rating (VR) was also determined. […]

[4] = system: reverse transcriptase (RT) from Moloney murine leukemia virus (MMLV) or avian myeloblastosis virus (AMV); assay: Reverse transcriptase assay; format: biochemical; conditions: 8 mM concentration
Protocol: For the reverse transcriptase assay, cloned reverse transcriptase (RT) (Bethesda Research Laboratories) from Moloney murine leukemia virus (MMLV) or avian myeloblastosis virus (AMV) (Seikagaku or Boehringer Mannheim) was used to direct DNA synthesis from a polyribonucleotide template and a oligodeoxynucleotide primer under reaction conditions (Houts, G. E., et al, J Virol (1979) 29:517.)
Reaction mixtures (100 μl) for the assay of MMLV RT consisted of 50 mM Tris-hydrochloride, pH 8.0, 6 mM MgCl2, 40 mM KCl, 100 μg bovine serum albumin per ml, 1 mM dithiothreitol, 0.1 mM polyadenylic acid (Pharmacia, Inc.), 0.1 mM oligo(dT)12-18 (Pharmacia, Inc.), 0.4 mM deoxythymidine triphosphate (dTTP), and 0.1 mM tritiated (93.5 Cl/mmol) dTTP (New England Nuclear). The compounds assayed were added in various concentrations and dilutions at a volume of 10 μl. Results were confirmed by duplicate assays. Dilutions were made using 10% aqueous DMSO. The total activity was measured by spotting on dry Whatman 3 mm filter disks and radioactivity was determined by liquid scintillation techniques. The assay time course was begun by adding 10 units of RT from MMLV or AMV and incubating the reaction at 37° C. […] Disks were dried under a heat lamp and the acid-insoluble product radioactivity was determined by liquid scintillation counting. […]

HIV = assay: Antiviral activity versus HIV in lymphoblastoid cells; format: cell-based; conditions: Human immunodeficiency virus 1, Lymphoblastoid cell; read-out: ED50 against HIV
Protocol: The compounds of the invention were evaluated in vitro as antiviral agents against herpes virus and against RNA retrovirus. Various herpes strains were used. An infected B lymphoblastoid cell line was used as HIV substrate to test antiviral activity with respect to RNA retrovirus.
To test antiviral activity versus HIV, the following procedure was used: Infectious HIV was assayed in cell culture as described originally by Barre-Sinoussi et al for isolation of LAV, except that persistently infected lymphoblastoid cells were used instead of mononuclear cells from anti-LAV negative donors. HIV obtained from cell culture was stored in liquid nitrogen in aliquots of RPMI 1640 culture medium with 20% of total calf serum and 20% glycerol and containing 1,000 TCID-50 HIV. The lymphoblastoid cells (10^6) were incubated with 1,000 TCID-50 of HIV obtained from cell cultures, and cells were then cultured in RPMI-1640 medium. Culture medium was changed every 3 days for 3 weeks and the medium for each 3-day period from Day 6 through Day 21 was assayed for viral reverse transcriptase activity by concentrating (pelleting) virus by ultracentrifugation in the 100 place Spinco 25 rotor and assaying pellets for reverse transcriptase (RT) using a ^32 P-dTTP in the presence of dimer-template poly rA-oligo dT. […]

HSV-2 (Strain E194) = assay: Inhibition of viral CPE, HSV-2; format: cell-based
Protocol: as §1, §7
as §8, with “The test compounds were added to the medium at a concentration of 2000 μg/ml for use as a positive control.” left out
as §9

cells = assay: Cytotoxicity (maximum tolerated dose), control tests in 96-well microplates; format: cell-based; conditions: overall, Table 5
From the text: as §3, §4, §5, §6, §2

[5] = MA104, read-out: CPE Inhib., Table 2
[6] = MA104, read-out: CPE Inhib., Table 3 Test 1
[7] = MA104, read-out: CPE Inhib., Table 3 Test 2

Nc1nc2c(ncn2COCCO)c(=O)[nH]1 [Acyclovir, 9-(2-hydroxyethoxymethyl) guanine, reference compound]
No. Plaques ([1]; Experiment No. 1, 32 μg/ml): 7 | No. Plaques ([1]; Experiment No. 1, 100 μg/ml): 1 | No. Plaques ([1]; Experiment No. 2, 10 μg/ml): 20 | No. Plaques ([1]; Experiment No. 2, 32 μg/ml): 8 | No. Plaques ([1]; Experiment No. 2, 100 μg/ml): 1 | Approx. ED50 ([1]; Experiment No. 2, determined from plot of data): 10 to 32 µg/mL | inhibition at 32 µg/mL ([1]; Human betaherpesvirus 5, AD169, Experiment No. 1, 32 μg/ml, read-out: % Reduct.): 59% | inhibition at 100 µg/mL ([1]; Human betaherpesvirus 5, AD169, Experiment No. 1, 100 μg/ml, read-out: % Reduct.): 94% | inhibition at 10 µg/mL ([1]; Human betaherpesvirus 5, AD169, Experiment No. 2, 10 μg/ml, read-out: % Reduct.): 9% | inhibition at 32 µg/mL ([1]; Human betaherpesvirus 5, AD169, Experiment No. 2, 32 μg/ml, read-out: % Reduct.): 64% | inhibition at 100 µg/mL ([1]; Human betaherpesvirus 5, AD169, Experiment No. 2, 100 μg/ml, read-out: % Reduct.): 96% | EC50 ([1]; Human betaherpesvirus 5, AD169, Experiment No. 1, determined from plot of data, read-out: Approx. ED50): 10 to 32 µg/mL (≈ 44.4 to 142 µM) | TK+ (average number of lesions) (HSV-1TK+): 1.0 | CC50 [2]: ~1000 µg/mL (≈ 4440 µM)

Nc1nc2c(ncn2COCCCP(=O)(O)O)c(=O)[nH]1 [Compound 1, 9-(3'-phosphono-1'-propoxymethyl)guanine]
activity against HSV-1TK+ relative to vidarabine [3]: comparable to that of vidarabine | VR (Virus Rating) ([3]; additional tests against HSV-1TK+): 0.6 | activity against murine CMV (murine CMV (NJB strain)): not active | inhibition of reverse transcriptase [4]: 75% | EC50 (HIV): 40 to 50 µg/mL (≈ 132 to 165 µM)

Nc1ncnc2c1ncn2[C@@H]1O[C@H](CO)[C@@H](O)[C@@H]1O [Vidarabine]
EC50 ([3]; MA104, 72 h, read-out: ED50): 10 µg/mL (≈ 37.4 µM) | inhibition at 1 µg/mL [3, 5]: 56% | inhibition at 3.2 µg/mL [3, 5]: 28% | inhibition at 10 µg/mL [3, 5]: 69% | inhibition at 32 µg/mL ([3]; MA104, read-out: CPE Inhib., Table 2, 32 μg/ml): 87% | inhibition at 100 µg/mL [3, 5]: 87% | inhibition at 320 µg/mL [3, 5]: 100% | inhibition at 1000 µg/mL [3, 5]: 100% | inhibition at 1 µg/mL [3, 6]: 0% | inhibition at 10 µg/mL [3, 6]: 60% | inhibition at 320 µg/mL [3, 6]: 100% | inhibition at 1000 µg/mL [3, 6]: 100% | inhibition at 1 µg/mL [3, 7]: 0% | inhibition at 3.2 µg/mL [3, 7]: 0% | inhibition at 100 µg/mL [3, 7]: 85% | inhibition at 320 µg/mL [3, 7]: 100% | inhibition at 1000 µg/mL [3, 7]: 100% | VR (Virus Rating) ([3]; Table 2, HSV-1TK+): 1.3 | VR (Virus Rating) ([3]; Table 3 Test 1, HSV-1TK+): 0.8 | VR (Virus Rating) ([3]; Table 3 Test 2, HSV-1TK+): 0.7

CCOP(=O)(O)CCC(CO)OCn1cnc2c(=O)[nH]c(N)nc21 (stereo not drawn) [Compound 5, 9(3'-ethylphosphono-1'-hydroxymethyl-1'-propyloxymethyl)guanine]
effectiveness against HSV1TK+ [3]: mildly effective | No. Plaques ([1]; Experiment No. 1, 32 μg/ml): 2 | No. Plaques ([1]; Experiment No. 1, 100 μg/ml): 1 | No. Plaques ([1]; Experiment No. 2, 10 μg/ml): 7 | No. Plaques ([1]; Experiment No. 2, 32 μg/ml): 3 | No. Plaques ([1]; Experiment No. 2, 100 μg/ml): 0 | inhibition at 32 µg/mL ([1]; Human betaherpesvirus 5, AD169, read-out: % Reduct., Experiment No. 1, 32 μg/ml): 88% | inhibition at 100 µg/mL ([1]; Human betaherpesvirus 5, AD169, read-out: % Reduct., Experiment No. 1, 100 μg/ml): 94% | inhibition at 10 µg/mL ([1]; Human betaherpesvirus 5, AD169, read-out: % Reduct., Experiment No. 2, 10 μg/ml): 68% | inhibition at 32 µg/mL ([1]; Human betaherpesvirus 5, AD169, read-out: % Reduct., Experiment No. 2, 32 μg/ml): 86% | inhibition at 100 µg/mL ([1]; Human betaherpesvirus 5, AD169, read-out: % Reduct., Experiment No. 2, 100 μg/ml): 100% | EC50 ([1]; Human betaherpesvirus 5, AD169, read-out: Approx. ED50, Experiment No. 1, determined from plot of data): ~0.1 µg/mL (≈ 0.277 µM) | EC50 ([1]; Human betaherpesvirus 5, AD169, read-out: Approx. ED50, Experiment No. 2, determined from plot of data): ~3.2 µg/mL (≈ 8.86 µM) | EC50 ([1]; Human betaherpesvirus 5, AD169, read-out: ED50, human CMV): 0.1 to 3.2 µg/mL (≈ 0.277 to 8.86 µM) | human CMV-inhibitory effect relative to acyclovir ([1]; overall, Table 5): more potent | effectiveness against HSV-2 (HSV-2 (Strain E194)): mildly effective | CC50 [2]: ~1000 µg/mL (≈ 2770 µM) | cytotoxicity relative to acyclovir (cells): no more cytotoxic
